Target: T1, human oxytocin receptor (Homo sapiens, UniProt P30559)
T1 construct: host or cells: CHO cells (pcDNA3.1 vector)
T1 sequence (P30559 1-389): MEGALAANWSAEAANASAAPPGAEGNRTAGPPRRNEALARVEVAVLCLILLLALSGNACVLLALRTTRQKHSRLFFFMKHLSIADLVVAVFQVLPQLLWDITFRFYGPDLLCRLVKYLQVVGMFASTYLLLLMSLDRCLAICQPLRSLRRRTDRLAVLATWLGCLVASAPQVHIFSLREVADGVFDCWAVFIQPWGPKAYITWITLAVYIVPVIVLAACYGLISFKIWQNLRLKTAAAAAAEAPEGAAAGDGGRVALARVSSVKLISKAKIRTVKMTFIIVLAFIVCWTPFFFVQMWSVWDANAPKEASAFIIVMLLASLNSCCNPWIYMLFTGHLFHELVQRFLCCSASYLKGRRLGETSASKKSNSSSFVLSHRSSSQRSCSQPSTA
Assay: Oxytocin binding in Chinese Hamster Ovary cell membranes expressing human oxytocin receptors
Conditions: CHO cell membranes, [3H]oxytocin; for IC50: values in parentheses, read-out: OT (IC50); for inhibition at 0.1 µM: 100 nM, values without parentheses, read-out: OT % inhibition @ 100% nM

Row | SMILES | IC50 [nM] | inhibition at 0.1 µM [%]
1 | COc1cc(-c2ccccc2C(F)(F)F)c(OC)cc1C(=O)N1Cc2cccn2Cc2ccccc21 [Example 32, 10-{[3,6-Dimethoxy-2′-trifluoromethyl-[1,1′-biphenyl]-4-yl]carbonyl}-10,11-dihydro-5H-pyrrolo[2,1-c][1,4]benzodiazepine] | 185 | –
2 | COc1cc(C(=O)N2Cc3ccc(C(=O)N(C)CCN(C)C)n3Cc3ccccc32)ccc1-c1ccccc1C [Example 92, N-[2-(Dimethylamino)ethyl]-10-[(2-methoxy-2′-methyl[1,1′-biphenyl]-4-yl)carbonyl]-N-methyl-10,11-dihydro-5H-pyrrolo[2,1-c][1,4]benzodiazepine-3-carboxamide] | – | 99
3 | O=C(c1ccc(-c2cccc3ccccc23)nc1)N1Cc2cccn2Cc2ccccc21 [Example 28, [6-(Naphthalen-1-yl)-pyridin-3-yl]-[10,11-dihydro-5H-pyrrolo[2,1-c][1,4]benzodiazepin-10-yl]methanone] | 29.5 | –
4 | COc1cc(-c2ccccc2C)c(Cl)cc1C(=O)N1Cc2ccc(C(=O)N3CCC(N4CCCC4)CC3)n2Cc2ccccc21 [Example 136, {10-[(6-Chloro-3-methoxy-2′-methyl[1,1′-biphenyl]-4-yl)carbonyl]-10,11-dihydro-5H-pyrrolo[2,1-c][1,4]benzodiazepin-3-yl}[4-(1-pyrrolidinyl)-1-piperidinyl]methanone] | 7.19 | –
5 | COc1cccc(-c2ccc(C(=O)N3Cc4ccc(C(=O)N(C)CCN(C)C)n4Cc4ccccc43)cc2OC)c1 [Example 95, 10-[(2,3′-Dimethoxy[1,1′-biphenyl]-4-yl)carbonyl]-N-[2-(dimethylamino)ethyl]-N-methyl-10,11-dihydro-5H-pyrrolo[2,1-c][1,4]benzodiazepine-3-carboxamide] | – | 97
6 | COc1ccccc1-c1ccc(C(=O)N2Cc3ccc(C(=O)N(C)CCCN(C)C)n3Cc3ccccc32)cc1C [Example 100, N-[3-(Dimethylamino)propyl]-10-[(2′-methoxy-2-methyl[1,1′-biphenyl]-4-yl)carbonyl]-N-methyl-10,11-dihydro-5H-pyrrolo[2,1-c][1,4]benzodiazepine-3-carboxamide] | – | 98
7 | COc1cc(-c2ccccc2C)c(Cl)cc1C(=O)N1Cc2ccc(C(=O)N3CCC(N4CCCCC4)CC3)n2Cc2ccccc21 [Example 110, {10-[(6-Chloro-3-methoxy-2′-methyl[1,1′-biphenyl]-4-yl)carbonyl]-10,11-dihydro-5H-pyrrolo[2,1-c][1,4]benzodiazepin-3-yl}[4-(1-piperidinyl)-1-piperidinyl]methanone] | 7.93 | –
8 | CN(C)CCN(C)C(=O)c1ccc2n1Cc1ccccc1N(C(=O)c1ccc(-c3cccc4ccccc34)cc1Cl)C2 [Example 96, 10-[2-Chloro-4-(1-naphthyl)benzoyl]-N-[2-(dimethylamino)ethyl]-N-methyl-10,11-dihydro-5H-pyrrolo[2,1-c][1,4]benzodiazepine-3-carboxamide] | – | 54
9 | COc1cc(C(=O)N2Cc3ccc(C(=O)N(C)CCN(C)C)n3Cc3ccccc32)ccc1-c1cccc2ccccc12 [Example 93, N-[2-(Dimethylamino)ethyl]-10-[3-methoxy-4-(1-naphthyl)benzoyl]-N-methyl-10,11-dihydro-5H-pyrrolo[2,1-c][1,4]benzodiazepine-3-carboxamide] | – | 90
10 | COc1cccc(-c2ccc(C(=O)N3Cc4ccc(C(=O)N5CC[C@@H](N(C)C)C5)n4Cc4ccccc43)cc2C)c1 [Example 278, [(3R)-3-(Dimethylamino)pyrrolidinyl]{10-[(3′-methoxy-2-methyl[1,1′-biphenyl]-4-yl)carbonyl]-10,11-dihydro-5H-pyrrolo[2,1-c][1,4]benzodiazepin-3-yl}methanone] | 7.87 | –
11 | COc1cc(-c2ccccc2F)c(Cl)cc1C(=O)N1Cc2cccn2Cc2ccccc21 [Example 18B, 10-{[6-Chloro-3-methoxy-2′-fluoro-[1,1′-biphenyl]-4-yl]carbonyl}-10,11-dihydro-5H-pyrrolo[2,1-c][1,4]benzodiazepine] | 14.5 | –
12 | Cc1cc(C(=O)N2Cc3ccc(C(=O)N4CCN(CCN(C)C)CC4)n3Cc3ccccc32)ccc1-c1ccccc1C(F)(F)F [Example 196, {4-[2-(Dimethylamino)ethyl]-1-piperazinyl}(10-{[2-methyl-2′-(trifluoromethyl)[1,1′-biphenyl]-4-yl]carbonyl}-10,11-dihydro-5H-pyrrolo[2,1-c][1,4]benzodiazepin-3-yl)methanone] | 11.6 | –
13 | COc1ccccc1-c1ccc(C(=O)N2Cc3ccc(C(=O)N(C)CCN(C)C)n3Cc3ccccc32)cc1 [Example 90, N-[2-(Dimethylamino)ethyl]-10-[(2′-methoxy[1,1′-biphenyl]-4-yl)carbonyl]-N-methyl-10,11-dihydro-5H-pyrrolo[2,1-c][1,4]benzodiazepine-3-carboxamide] | – | 100
14 | COc1ccccc1-c1ccc(C(=O)N2Cc3ccc(C(=O)N(C)CCN(C)C)n3Cc3ccccc32)cc1OC [Example 94, 10-[(2,2′-Dimethoxy[1,1′-biphenyl]-4-yl)carbonyl]-N-[2-(dimethylamino)ethyl]-N-methyl-10,11-dihydro-5H-pyrrolo[2,1-c][1,4]benzodiazepine-3-carboxamide] | – | 94

Continued by falling IC50, values first:

Row | IC50 [nM] | inhibition at 0.1 µM [%] | SMILES
15 | 7.14 | – | Cc1cc(C(=O)N2Cc3ccc(C(=O)N(C)CCCN(C)C)n3Cc3ccccc32)ccc1-c1ccccc1C(F)(F)F [Example 97, N-[3-(Dimethylamino)propyl]-N-methyl-10-{[2-methyl-2′-(trifluoromethyl)[1,1′-biphenyl]-4-yl]carbonyl}-10,11-dihydro-5H-pyrrolo[2,1-c][1,4]benzodiazepine-3-carboxamide]
16 | 5.39 | – | COc1cc(-c2ccccc2C)c(Cl)cc1C(=O)N1Cc2ccc(C(=O)N3CCN(CCN(C)C)CC3)n2Cc2ccccc21 [Example 197, {10-[(6-Chloro-3-methoxy-2′-methyl[1,1′-biphenyl]-4-yl)carbonyl]-10,11-dihydro-5H-pyrrolo[2,1-c][1,4]benzodiazepin-3-yl}{4-[2-(dimethylamino)ethyl]-1-piperazinyl}methanone]
17 | 5.39 | – | COc1cc(-c2ccccc2C)c(Cl)cc1C(=O)N1Cc2ccc(C(=O)N3CCCN(C)CC3)n2Cc2ccccc21 [Example 60, {10-[(6-Chloro-3-methoxy-2′-methyl[1,1′-biphenyl]-4-yl)carbonyl]-10,11-dihydro-5H-pyrrolo[2,1-c][1,4]benzodiazepin-3-yl}(4-methyl-1,4-diazepan-1-yl)methanone]
18 | 4.63 | – | COc1cccc(-c2cc(OC)c(C(=O)N3Cc4ccc(C(=O)N(C)CCN(C)C)n4Cc4ccccc43)cc2Cl)c1 [Example 87, 10-[(6-Chloro-3,3′-dimethoxy[1,1′-biphenyl]-4-yl)carbonyl]-N-[2-(dimethylamino)ethyl]-N-methyl-10,11-dihydro-5H-pyrrolo[2,1-c][1,4]benzodiazepine-3-carboxamide]
19 | 4.5 | – | COc1ccccc1-c1ccc(C(=O)N2Cc3ccc(C(=O)N4CCCN(C)CC4)n3Cc3ccccc32)cc1 [Example 61, {10-[(2′-Methoxy[1,1′-biphenyl]-4-yl)carbonyl]-10,11-dihydro-5H-pyrrolo[2,1-c][1,4]benzodiazepin-3-yl}(4-methyl-1,4-diazepan-1-yl)methanone]
20 | 2.61 | – | COc1ccccc1-c1ccc(C(=O)N2Cc3ccc(C(=O)N4CC[C@@H](N(C)C)C4)n3Cc3ccccc32)cc1C [Example 272, [(3R)-3-(Dimethylamino)pyrrolidinyl]{10-[(2′-methoxy-2-methyl[1,1′-biphenyl]-4-yl)carbonyl]-10,11-dihydro-5H-pyrrolo[2,1-c][1,4]benzodiazepin-3-yl}methanone]
21 | 2.31 | – | COc1cccc(-c2ccc(C(=O)N3Cc4ccc(C(=O)N5CCC[C@H]5CN5CCCC5)n4Cc4ccccc43)cc2C)c1 [Example 263, {10-[(3′-Methoxy-2-methyl[1,1′-biphenyl]-4-yl)carbonyl]-10,11-dihydro-5H-pyrrolo[2,1-c][1,4]benzodiazepin-3-yl}[(2S)-2-(1-pyrrolidinylmethyl)pyrrolidinyl]methanone]
22 | 2.31 | – | COc1cc(-c2ccccc2C)c(Cl)cc1C(=O)N1Cc2ccc(C(=O)N(C)CCN(C)C)n2Cc2ccccc21 [Example 86, 10-[(6-Chloro-3-methoxy-2′-methyl[1,1′-biphenyl]-4-yl)carbonyl]-N-[2-(dimethylamino)ethyl]-N-methyl-10,11-dihydro-5H-pyrrolo[2,1-c][1,4]benzodiazepine-3-carboxamide]
23 | 1.81 | – | COc1cc(C(=O)N2Cc3ccc(C(=O)N4CCC[C@H]4CN4CCCC4)n3Cc3ccccc32)ccc1-c1ccccc1C(F)(F)F [Example 20, {[10-(2-Methoxy)-2′-trifluoromethyl-[1,1′-biphenyl]-4-yl]carbonyl}-[(2S)-[(2-pyrrolidin-1-yl)methyl]pyrrolidin-1-yl]-10,11-dihydro-5H-pyrrolo[2,1-c][1,4]benzodiazepin-3-yl-methanone]
24 | 1.7 | – | COc1cc(C(=O)N2Cc3ccc(C(=O)N(C)CCCN(C)C)n3Cc3ccccc32)ccc1-c1ccccc1C(F)(F)F [Example 21, N-Methyl-[N-(3-dimethylamino)propyl]-10-{[2-methoxy-2′-trifluoromethyl-[1,1′-biphenyl]-4-yl]carbonyl}-10,11-dihydro-5H-pyrrolo[2,1-c][1,4]benzodiazepin-3-carboxamide]
